Results as given in PubChem BioAssay (NCI).
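How tested: cells in 96-well plates exposed to compound for 48 hours at five concentrations. The concentration for 50% growth inhibition is given as GI50. TGI denotes the concentration required for complete inhibition of growth.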

Columns and labels:
Experiment in all cases: growth of human tumour cells (NCI), 48 h
MDA-MB-231 breast = system: MDA-MB-231 breast
COLO 205 colon = system: COLO 205 colon
MDA-MB-435 = system: MDA-MB-435
SR leukemia = system: SR leukemia
EKVX NSCLC = system: EKVX NSCLC
MCF7 breast = system: MCF7 breast
MOLT-4 leukemia = system: MOLT-4 leukemia
RPMI-8226 leukemia = system: RPMI-8226 leukemia
DU-145 prostate = system: DU-145 prostate
HCT-116 colon = system: HCT-116 colon

| SMILES | GI50 (MDA-MB-231 breast) | TGI (MDA-MB-231 breast) | GI50 (COLO 205 colon) | TGI (COLO 205 colon) | GI50 (MDA-MB-435) | TGI (MDA-MB-435) | GI50 (SR leukemia) | TGI (SR leukemia) | GI50 (EKVX NSCLC) | TGI (EKVX NSCLC) | GI50 (MCF7 breast) | TGI (MCF7 breast) | GI50 (MOLT-4 leukemia) | GI50 (RPMI-8226 leukemia) [µM] | TGI (RPMI-8226 leukemia) [µM] | GI50 (DU-145 prostate) | TGI (DU-145 prostate) | GI50 (HCT-116 colon) | TGI (HCT-116 colon) | TGI (MOLT-4 leukemia) |
| --- | --- | --- | --- | --- | --- | --- | --- | --- | --- | --- | --- | --- | --- | --- | --- | --- | --- | --- | --- | --- |
| C=CCN1CC(=O)N2[C@@H](Cc3ccc(O)cc3F)C(=O)N(Cc3cccc(N4CC(N5CCN(CC)CC5)C4)n3)C[C@@H]2N1C(=O)NCc1ccccc1 | 0.0216 µM | 0.139 µM | 0.028 µM | 0.262 µM | 0.102 µM | > 100 µM | 0.0292 µM | 1.7 µM | 0.278 µM | > 100 µM | 0.524 µM | > 100 µM | 0.0276 µM | 0.05 | 26.2 | 0.0844 µM | > 100 µM | 0.0325 µM | > 100 µM |  |
| COC(=O)c1cc2c(cc1Cl)SC1=NN(C)C(N(C)C)N1S2(=O)=O (stereo not drawn) | > 100 µM | > 100 µM | > 100 µM | > 100 µM | > 100 µM | > 100 µM | > 100 µM | > 100 µM | > 100 µM | > 100 µM | > 100 µM | > 100 µM | 62.8 µM | > 100 | > 100 | > 100 µM | > 100 µM | > 100 µM | > 100 µM | > 100 µM |
| Cc1cc(C)nc(SC2=C(Nc3cc(Cl)ccc3O)C(=O)N(Cc3ccccc3)C2=O)n1 | 16.8 µM | 48 µM | 36.4 µM | 90.7 µM | 62.2 µM | > 160 µM | 18.6 µM | 70.6 µM | 57.7 µM | > 160 µM | 20.5 µM | 109 µM | 6.14 µM | 3.57 | 25.7 | 39 µM | 108 µM | 31.4 µM | > 160 µM | 31.4 µM |
| CCc1cccc(C)c1NC(=O)c1sc2nc3c(cc2c1N)C(=O)CCC3 | 1.42 µM | > 100 µM | 0.35 µM | 1.51 µM | 0.159 µM |  | 0.501 µM | > 41.1 µM |  |  | 0.396 µM | > 91.4 µM | 2.62 µM | 1.06 | > 24 | 0.514 µM | > 100 µM | 0.564 µM | > 100 µM | > 69.6 µM |
| O=C(O)c1cccc(C(=O)O)c1S(=O)Cc1ccccc1 (stereo not drawn) |  | > 100 µM |  | > 100 µM |  | > 100 µM |  | > 100 µM |  | > 100 µM |  | > 100 µM |  |  | > 100 |  | > 100 µM |  | > 100 µM |  |
| COc1ccc(/C=C(\C#N)n2nnc3c(F)cccc32)cc1 | 0.551 µM | 3.68 µM | 0.38 µM | > 100 µM | 0.052 µM | 0.371 µM | 0.161 µM | > 100 µM | 0.501 µM | > 100 µM | 0.715 µM | > 100 µM | 0.456 µM | 0.409 | > 100 | 0.503 µM | > 40.2 µM | 0.363 µM | > 31.6 µM | > 100 µM |
| Cc1ccc(/C(C#N)=C/c2cccc([N+](=O)[O-])c2)cc1 |  | 52.8 µM |  | > 100 µM |  | > 100 µM |  | > 100 µM |  | > 100 µM |  | > 100 µM |  |  | > 100 |  | > 100 µM |  | > 100 µM |  |
| COC(=O)c1cncc(/C=C/c2c(C)cc(O)cc2C)c1 | 7.19 µM | > 23 µM | > 22.4 µM | > 25 µM | 3.42 µM | 11.7 µM | 2.67 µM | > 25 µM | > 17.3 µM | > 25 µM | 11.5 µM | > 18.7 µM | 4.19 µM | 9.03 | > 25 | 13.6 µM | > 25 µM | 14.2 µM | > 25 µM | > 20.1 µM |
| CC1(C)CC(=O)C2=C(C1)OC(N)=C(c1nc(-c3ccccc3)cs1)C2c1ccc(Br)cc1 (stereo not drawn) | 59.1 µg/mL | > 150 µg/mL | 41.8 µg/mL | > 150 µg/mL | 92.6 µg/mL | > 150 µg/mL | 112 µg/mL | > 150 µg/mL | 64.5 µg/mL | > 150 µg/mL | 18.2 µg/mL | 101 µg/mL | 53.5 µg/mL |  |  | 70.9 µg/mL | > 150 µg/mL | 55.7 µg/mL | > 150 µg/mL | > 150 µg/mL |
| CC1=C(CC(=O)c2cccc([N+](=O)[O-])c2)C(=O)c2ccccc2C1=O | 1.89 µM | 12.7 µM | 19.7 µM | 37.6 µM | 2.13 µM | 4.04 µM | 3.21 µM | 12.6 µM |  |  | 1.41 µM | 3.65 µM | 3.27 µM | 4.42 | 37.4 | 7.55 µM | 20.1 µM | 3.01 µM | 10.6 µM | 14.1 µM |
| COC(=O)CCCCC(=O)c1c(C)[nH]c(/C=C2\N=C(c3ccc[nH]3)C=C2OC)c1C | 0.269 µM | 1.65 µM | 1.64 µM | 3.29 µM | 0.328 µM | 1.22 µM | 0.029 µM | 0.313 µM | 1.14 µM | 2.61 µM | 0.723 µM | 2.09 µM | 0.103 µM | 0.428 | 2.34 | 0.482 µM | 1.81 µM | 0.109 µM |  | 1.74 µM |
| O=C(CC1(O)C(=O)N(Cc2ccccc2)c2ccccc21)c1ccc(C(=O)NCC2CCC3(CC2)OOC2(CCCCC2)OO3)cc1 (stereo not drawn) | 1.15 µM | 2.95 µM | 1.93 µM | 4.51 µM | 0.875 µM | 2.45 µM | 0.344 µM | 1.66 µM | 0.659 µM | 2.04 µM | 2.43 µM | 10.5 µM | 1.89 µM | 0.886 | 3.43 | 0.25 µM | 0.625 µM | 2.29 µM | 6.13 µM | 4.61 µM |
| CC1OC(OC2C(O)CC(OC3C(O)CC(OC4CCC5(C)C(CCC6C5CC(O)C5(C)C(C7=CC(=O)OC7)CCC65O)C4)OC3C)OC2C)CC(O)C1O (stereo not drawn) | 0.205 µM | 0.616 µM | 0.131 µM | 0.272 µM | 0.134 µM | 0.318 µM | 0.0244 µM | 0.0897 µM | 0.0351 µM | 0.121 µM | 0.0436 µM | 0.196 µM | 0.0252 µM | 0.0921 |  | 0.0308 µM | 0.0903 µM | 0.0331 µM | 0.115 µM | 0.0619 µM |
